Assays:
[1] = tested on: human osteoprogenitor cells; assay: Peptide binding: attachment and spreading of human osteoprogenitor cells on coated plates; assay type: cell-based
Experimental: Example 11 analyzes the binding and cell spread activity of various peptides. The activities were measured in 24-well plates that were coated overnight at 4° C. with 10 μg/ml of the indicated ligand or peptide and then blocked for one hour at room temperature with 10 mg/ml BSA (Bovine Serum Albumin) in PBS (Phosphate Buffered Saline). To preserve the integrity of the adhesion receptors osteoprogenitor cells were harvested from sub-confluent cultures by non-enzymatic cell dissociation solution (Sigma, St. Louis, Mo.). Cells were washed twice with PBS and re-suspended at a concentration of 1×10^5 cells/ml of sterile Ca^2+- and Mg^2+-free PBS, supplemented with 0.1% BSA and 1 mM sodium pyruvate. 5×10^4 cells were incubated in each well and, after one hour at 37° C., the wells were washed three times with 0.5 ml PBS to remove non-adherent cells, fixed in 1% glutaraldehyde in 0.1 M cacodylate buffer (pH 7.4) at room temperature for one hour then stained with toluidine blue and hematoxylin. The total number of attached or spread cells in each well were counted microscopically using a Nikon Eclipse microscope equipped with a Sony digital camera. Total number of attached or spread cells were quantified using an Optima 5.2 image analysis system. Each experiment was done in triplicate and is reported as mean+/−standard error. To minimize variability inherent to cell attachment studies cells were scored as attached only when a defined nucleus observed accompanied by a transition from round to cuboidal cell morphology. Round cells that are loosely attached with no defined nucleus were scored as non-attached. These cells can be removed with repeated washes. The viability of the cells was measured before and after the termination of the experiments and only data from experiments with greater than 95% cell viability were used. […] Cell spreading was determined by membrane contour analysis and was scored according to increase in cell volume/surface area. Because of this change in cell volume/surface area, cell spreading is a measure of a change in cellular development. In some experiments, cell spreading was also assessed by the formation of stress fibers. The formation of stress fibers and/or changes in cell volume/surface area are each characteristics of cells undergoing differentiation. Each experiment was performed in quadruplicate wells and repeated three times.
5000 total human osteoprogenitor cells were plated on either uncoated plates or coated and incubated at 37° C. in a humidified atmosphere (95% air, 5% CO2). After 30 minutes, unattached cells were removed and the plates were washed with PBS. The total number of attached cells was determined as described in the materials and methods. In some experiments (labeled with an “#” in Table 8), antibodies ([…]) against various integrins were incubated with the cells for 15 minutes prior to plating.

[2] = tested on: HOS cells; assay: Attachment of HOS cells to plastic, glass or chromocobalt surfaces coated with OPN; assay type: cell-based, human; details: 1 hour
Experimental: 500 cells were plated on coated plastic, glass or chromocobalt surfaces and incubated at 37° C. in a humidified atmosphere (95% air 5% CO2). Surfaces were coated with either human recombinant phosphorylated OPN (rhOPN) or unphosphorylated OPN. Fibronectin coated surfaces were used as a control. After 1 hour, unattached cells were removed and the surfaces were washed with PBS. The total number of attached cells was determined for the total cpm released for the surfaces after the cells were lysed with 10% TCA and solubilized in 5 ml scintillation fluid. All measurements were done in triplicates.

[3] = tested on: canine model; assay: Osseointegration of coated TPS dental implants in canine model (bone to implant contact, bone density); assay type: in vivo, dog; details: coating 200 μg/ml
Source text: Canine models allow the use of implant designs and sizes commonly used in clinical applications.
Mandibular premolars and first molars were extracted bilaterally in a total of twelve dogs. After a healing period of three months, 6 implants TPS (ITI 4.1×8 mm) were placed in each mandibular quadrant. Test coatings of rOPN and mOC-1016 and non-coated TPS control wre used. A randomized distrubution of tests and controls were incorporated.
Large hounds were used in this Example. For all surgical procedures (extractions, implant placement, suture removal), after sedation with acepromazine (0.1 mg/kgS.C.), the animals were anesthetized using pentobarbitol (20 mg/kg I.V.). Antibiotics (bicillin 200,000 u I.M.) and ibuprofen for pain control (200 mg/dog/day P.O.) were given for extraction and implant placement surgeries. For sacrifice, an overdose of pentobarbitol (50 mg/kg I.V. after sedation with acepromazine 0.1 mg/kg S.C.) was administered.
The implant and it's surrounding tissue were dissected in block, fixed in 4% formaldehyde and imbedded in PMMA. The osseointegration of the implant was measured as percent of directly apposed bone versus total implant area by contour analysis using an image analysis system. The extent of new mineralized bone (in percent) in the area between the major and minor diameter of the implant was also determined.

[4] = target: CD44 (human) (UniProt P16070); assay: cell-based or functional assay
Chain of UniProt P16070 (P16070 21-742): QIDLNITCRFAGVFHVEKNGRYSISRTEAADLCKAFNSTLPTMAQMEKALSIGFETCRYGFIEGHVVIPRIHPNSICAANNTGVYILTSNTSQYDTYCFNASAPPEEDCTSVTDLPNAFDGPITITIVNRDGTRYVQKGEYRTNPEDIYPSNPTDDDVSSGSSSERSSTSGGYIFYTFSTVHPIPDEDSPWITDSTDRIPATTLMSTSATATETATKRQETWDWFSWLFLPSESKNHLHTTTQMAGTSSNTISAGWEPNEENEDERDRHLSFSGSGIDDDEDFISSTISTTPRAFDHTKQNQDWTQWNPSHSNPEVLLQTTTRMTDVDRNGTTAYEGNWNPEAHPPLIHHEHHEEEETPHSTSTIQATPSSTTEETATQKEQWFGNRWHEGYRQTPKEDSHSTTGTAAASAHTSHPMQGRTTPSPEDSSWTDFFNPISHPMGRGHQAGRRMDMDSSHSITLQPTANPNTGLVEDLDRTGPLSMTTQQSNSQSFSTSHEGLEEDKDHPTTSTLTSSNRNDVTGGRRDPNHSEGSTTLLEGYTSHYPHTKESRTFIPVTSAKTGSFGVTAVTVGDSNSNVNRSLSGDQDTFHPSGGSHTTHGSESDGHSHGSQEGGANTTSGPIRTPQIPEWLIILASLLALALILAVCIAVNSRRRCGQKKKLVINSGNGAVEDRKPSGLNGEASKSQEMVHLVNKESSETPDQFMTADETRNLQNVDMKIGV

[5] = target: αβ1 integrin (human) (UniProt P05556); assay: cell-based or functional assay
Chain of UniProt P05556 (P05556 21-798): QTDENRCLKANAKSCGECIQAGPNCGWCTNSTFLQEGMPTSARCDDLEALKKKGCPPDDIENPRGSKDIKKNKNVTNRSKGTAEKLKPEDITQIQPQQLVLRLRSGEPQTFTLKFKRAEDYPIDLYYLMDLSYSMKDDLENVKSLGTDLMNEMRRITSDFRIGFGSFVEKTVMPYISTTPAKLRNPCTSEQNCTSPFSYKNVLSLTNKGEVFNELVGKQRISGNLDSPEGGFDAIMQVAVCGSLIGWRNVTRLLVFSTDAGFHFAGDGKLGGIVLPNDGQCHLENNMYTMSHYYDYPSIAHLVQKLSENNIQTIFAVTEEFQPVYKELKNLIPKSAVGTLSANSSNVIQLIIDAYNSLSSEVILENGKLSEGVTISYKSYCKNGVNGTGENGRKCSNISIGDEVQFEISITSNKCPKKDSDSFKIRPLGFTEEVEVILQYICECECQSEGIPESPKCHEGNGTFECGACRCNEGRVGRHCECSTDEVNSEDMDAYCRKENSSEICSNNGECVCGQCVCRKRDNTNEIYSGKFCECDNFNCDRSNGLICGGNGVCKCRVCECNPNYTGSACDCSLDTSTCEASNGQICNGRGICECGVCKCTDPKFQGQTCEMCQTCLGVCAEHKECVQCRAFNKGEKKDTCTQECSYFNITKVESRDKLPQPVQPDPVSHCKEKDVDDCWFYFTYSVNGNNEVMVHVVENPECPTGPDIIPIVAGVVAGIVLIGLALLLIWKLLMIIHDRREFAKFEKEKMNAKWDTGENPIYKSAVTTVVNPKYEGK

[6] = target: αvβ3 integrin (human) (UniProt P06756); assay: cell-based or functional assay
Chain of UniProt P06756 (P06756 31-1048, chain 1 of 2): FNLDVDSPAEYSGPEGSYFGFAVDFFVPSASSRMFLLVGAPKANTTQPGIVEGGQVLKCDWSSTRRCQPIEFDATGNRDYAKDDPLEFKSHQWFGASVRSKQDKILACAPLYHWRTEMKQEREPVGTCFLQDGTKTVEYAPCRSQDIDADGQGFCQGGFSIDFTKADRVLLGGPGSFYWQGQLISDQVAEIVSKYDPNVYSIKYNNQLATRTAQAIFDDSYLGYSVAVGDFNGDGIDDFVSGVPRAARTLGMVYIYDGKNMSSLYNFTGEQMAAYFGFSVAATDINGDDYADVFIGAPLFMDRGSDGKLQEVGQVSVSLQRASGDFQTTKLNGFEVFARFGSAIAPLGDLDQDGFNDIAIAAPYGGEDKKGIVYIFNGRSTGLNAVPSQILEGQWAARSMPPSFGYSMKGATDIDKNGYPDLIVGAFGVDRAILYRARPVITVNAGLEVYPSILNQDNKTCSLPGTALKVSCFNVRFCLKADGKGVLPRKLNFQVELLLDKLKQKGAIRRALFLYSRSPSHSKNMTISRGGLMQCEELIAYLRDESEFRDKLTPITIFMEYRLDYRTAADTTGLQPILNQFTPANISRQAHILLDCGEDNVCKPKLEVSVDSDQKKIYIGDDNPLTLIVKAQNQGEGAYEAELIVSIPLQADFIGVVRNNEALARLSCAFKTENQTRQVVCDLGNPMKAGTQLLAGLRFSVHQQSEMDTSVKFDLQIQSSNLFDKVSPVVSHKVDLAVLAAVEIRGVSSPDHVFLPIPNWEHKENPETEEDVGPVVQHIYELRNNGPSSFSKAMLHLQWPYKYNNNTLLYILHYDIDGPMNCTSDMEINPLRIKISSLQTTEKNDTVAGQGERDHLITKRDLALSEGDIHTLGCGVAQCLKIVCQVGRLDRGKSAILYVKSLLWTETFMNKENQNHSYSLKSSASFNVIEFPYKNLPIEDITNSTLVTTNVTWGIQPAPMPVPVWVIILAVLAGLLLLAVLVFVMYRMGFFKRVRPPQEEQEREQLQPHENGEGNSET
Chain of UniProt P06756 (P05106 27-788, chain 2 of 2, further chain): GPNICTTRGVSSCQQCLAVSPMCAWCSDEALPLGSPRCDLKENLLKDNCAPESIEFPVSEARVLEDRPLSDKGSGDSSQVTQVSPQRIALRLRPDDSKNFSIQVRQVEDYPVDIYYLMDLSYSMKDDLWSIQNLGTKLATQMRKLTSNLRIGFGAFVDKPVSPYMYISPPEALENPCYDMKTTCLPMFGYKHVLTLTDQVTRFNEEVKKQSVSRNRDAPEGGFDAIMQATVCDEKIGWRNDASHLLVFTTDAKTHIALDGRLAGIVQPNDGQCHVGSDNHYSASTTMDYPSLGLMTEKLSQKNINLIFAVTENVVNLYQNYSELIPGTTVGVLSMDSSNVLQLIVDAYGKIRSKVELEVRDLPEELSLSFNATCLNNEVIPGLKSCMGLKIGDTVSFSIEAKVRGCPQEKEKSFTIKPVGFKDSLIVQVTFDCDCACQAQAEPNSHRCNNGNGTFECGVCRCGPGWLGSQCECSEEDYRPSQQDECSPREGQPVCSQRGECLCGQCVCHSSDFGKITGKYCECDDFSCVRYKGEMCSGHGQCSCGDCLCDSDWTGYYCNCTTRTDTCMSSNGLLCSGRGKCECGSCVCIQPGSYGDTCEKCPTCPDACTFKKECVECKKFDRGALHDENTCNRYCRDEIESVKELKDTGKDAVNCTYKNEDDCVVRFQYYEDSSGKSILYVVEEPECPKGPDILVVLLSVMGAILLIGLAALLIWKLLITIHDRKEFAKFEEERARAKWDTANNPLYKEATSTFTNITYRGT

[7] = tested on: canine model; assay: Safety assessment (serum chemistry, hematology, antibody) after coated implant treatment in dogs; assay type: in vivo, dog; details: dogs with coated implants; vs baseline
Source text: The issue of safety was also addressed by assessing the serum chemistry, hematology and antibody results following treatment. […] Therefore, rOPN and OC-1016 are safe based upon these evaluations.

[8] = cells pre-incubated with Anti-CD44
[9] = cells pre-incubated with Anti-αvβ3
[10] = cells pre-incubated with Anti-αβ1

Substance | % Spread ([1]; no antibody, coated plates) [%] | % total attached cells ([1]; no antibody, coated plates) [%] | % total attached ([2]; Plastic surface) [%] | % total attached ([2]; chromocobalt (CrCo) surface) [%] | % total attached ([2]; glass surface) [%] | Mean Percent Bone Density ([3]; 4 weeks) [%] | Mean Percent Bone to Implant Contact ([3]; 4 weeks) [%] | Mean Percent Bone to Implant Contact ([3]; 12 weeks) [%] | also measured
DTFTPIVPTVDVPNGRFDSLAYGLKSKSKKFQ [SEQ ID NO: 13] | 100.0 | 91.1 |  |  |  |  |  |  | 
Fibronectin [reference compound] |  |  | 91.6 | 54.8 | 89.6 |  |  |  | 
OPN: Table 2: unphosphorylated OPN used as surface coating |  |  | 43.6 | 4 | 37.2 | 70.5 | 65.6 | 62.5 | Mean Percent Bone Density ([3]; 12 weeks): 56.9%
Osteopontin (from UniProt P10451 17-314) (ligand) |  |  |  |  |  |  |  |  | % Spread (# Anti-CD44) [4]: 46.4%; % total attached cells (# Anti-CD44) [4]: 66%; % Spread (# Anti-αβ1) [5]: 56.6%; % total attached cells (# Anti-αβ1) [5]: 74.8%; % Spread (# Anti-αvβ3) [6]: 24.8%; % total attached cells (# Anti-αvβ3) [6]: 69.2%
Osteopontin: osteopontin used to coat plates in Table 8; form not specified | 78.4 | 78.4 |  |  |  |  |  |  | % Spread [1, 8]: 46.4%; % total attached cells [1, 8]: 66%; % Spread [1, 9]: 24.8%; % total attached cells [1, 9]: 69.2%; % Spread [1, 10]: 56.6%; % total attached cells [1, 10]: 74.8%
rOPN: Recombinant Osteopontin coated on TPS dental implants; printed as OPN in Tables 4-7 |  |  |  |  |  | 70.9 | 65.6 | 62.5 | serum chemistry, hematology and antibody results following treatment [7]: no clinically significant differences from baseline
